Laboratory results as given in article PMC6199744, “Development of Chemical Proteomics for the Folateome and Analysis of the Kinetoplastid Folateome” (ACS Infectious Diseases, 2018).
Read-outs that look alike come from different tables or passages of the source.

Assays:
Format in all cases: binding
[1] = target: T1, HeLa cell extract proteins (Homo sapiens, UniProt O00303)
T1 construct: endogenous in cells; host or cells: HeLa cell extract

[2] = target: T2, HeLa cell extract proteins (Homo sapiens, UniProt O60701)
T2 construct: endogenous in cells; host or cells: HeLa cell extract
T2 sequence (O60701 1-494): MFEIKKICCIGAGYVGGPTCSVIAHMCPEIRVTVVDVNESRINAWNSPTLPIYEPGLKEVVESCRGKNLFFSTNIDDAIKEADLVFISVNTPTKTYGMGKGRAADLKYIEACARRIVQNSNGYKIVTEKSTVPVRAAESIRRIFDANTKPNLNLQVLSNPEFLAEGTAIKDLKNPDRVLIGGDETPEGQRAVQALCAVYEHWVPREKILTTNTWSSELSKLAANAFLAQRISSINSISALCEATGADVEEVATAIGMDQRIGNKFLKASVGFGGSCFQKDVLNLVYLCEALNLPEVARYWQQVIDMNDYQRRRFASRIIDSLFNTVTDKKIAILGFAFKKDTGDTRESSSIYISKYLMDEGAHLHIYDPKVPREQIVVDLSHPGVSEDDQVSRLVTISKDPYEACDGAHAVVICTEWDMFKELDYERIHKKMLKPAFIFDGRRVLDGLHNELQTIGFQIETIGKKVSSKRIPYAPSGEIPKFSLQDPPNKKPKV

[3] = target: T3, HeLa cell extract proteins (Homo sapiens, UniProt P05165)
T3 construct: endogenous in cells; host or cells: HeLa cell extract
T3 sequence (P05165 53-728): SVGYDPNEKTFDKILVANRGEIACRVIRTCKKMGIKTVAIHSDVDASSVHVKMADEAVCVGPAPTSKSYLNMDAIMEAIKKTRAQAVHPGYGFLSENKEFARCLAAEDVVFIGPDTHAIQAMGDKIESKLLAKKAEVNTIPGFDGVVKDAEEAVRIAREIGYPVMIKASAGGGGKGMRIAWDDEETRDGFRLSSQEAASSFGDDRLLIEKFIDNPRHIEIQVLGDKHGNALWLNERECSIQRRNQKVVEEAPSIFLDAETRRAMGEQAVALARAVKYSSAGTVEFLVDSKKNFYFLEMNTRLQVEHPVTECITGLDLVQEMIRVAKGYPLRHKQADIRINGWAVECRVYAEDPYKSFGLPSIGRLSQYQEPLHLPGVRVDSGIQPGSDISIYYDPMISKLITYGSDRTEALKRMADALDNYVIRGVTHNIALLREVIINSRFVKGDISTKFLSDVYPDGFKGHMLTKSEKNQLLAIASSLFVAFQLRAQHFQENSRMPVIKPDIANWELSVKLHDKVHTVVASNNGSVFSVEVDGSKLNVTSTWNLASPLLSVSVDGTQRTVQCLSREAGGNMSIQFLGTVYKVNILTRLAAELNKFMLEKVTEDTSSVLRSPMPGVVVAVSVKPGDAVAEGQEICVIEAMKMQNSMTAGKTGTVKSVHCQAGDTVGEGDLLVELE

[4] = target: T4, HeLa cell extract proteins (Homo sapiens, UniProt P13639)
T4 construct: endogenous in cells; host or cells: HeLa cell extract

[5] = target: T5, HeLa cell extract proteins (Homo sapiens, UniProt P49773)
T5 construct: endogenous in cells; host or cells: HeLa cell extract
T5 sequence (P49773 whole entry): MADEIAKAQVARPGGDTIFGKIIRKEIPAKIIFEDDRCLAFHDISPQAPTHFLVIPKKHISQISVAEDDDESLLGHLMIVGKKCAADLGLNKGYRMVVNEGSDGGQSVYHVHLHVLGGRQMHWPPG

[6] = target: T6, HeLa cell extract proteins (Homo sapiens, UniProt P50395)
T6 construct: endogenous in cells; host or cells: HeLa cell extract
T6 sequence (P50395 1-445): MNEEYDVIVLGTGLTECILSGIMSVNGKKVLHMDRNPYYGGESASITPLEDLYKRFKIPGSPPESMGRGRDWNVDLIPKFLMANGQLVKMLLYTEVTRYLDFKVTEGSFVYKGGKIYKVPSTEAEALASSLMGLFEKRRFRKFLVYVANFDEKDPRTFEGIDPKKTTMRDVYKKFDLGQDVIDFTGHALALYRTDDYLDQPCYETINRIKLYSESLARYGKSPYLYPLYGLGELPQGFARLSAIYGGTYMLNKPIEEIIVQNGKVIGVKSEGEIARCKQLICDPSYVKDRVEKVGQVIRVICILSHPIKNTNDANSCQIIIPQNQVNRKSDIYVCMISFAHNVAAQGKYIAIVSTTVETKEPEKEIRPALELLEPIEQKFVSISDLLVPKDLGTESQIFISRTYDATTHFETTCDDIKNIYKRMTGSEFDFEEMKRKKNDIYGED

[7] = target: T7, HeLa cell extract proteins (Homo sapiens, UniProt P54819)
T7 construct: endogenous in cells; host or cells: HeLa cell extract

[8] = target: T8, HeLa cell extract proteins (Homo sapiens, UniProt Q05048)
T8 construct: endogenous in cells; host or cells: HeLa cell extract
T8 sequence (Q05048 1-431): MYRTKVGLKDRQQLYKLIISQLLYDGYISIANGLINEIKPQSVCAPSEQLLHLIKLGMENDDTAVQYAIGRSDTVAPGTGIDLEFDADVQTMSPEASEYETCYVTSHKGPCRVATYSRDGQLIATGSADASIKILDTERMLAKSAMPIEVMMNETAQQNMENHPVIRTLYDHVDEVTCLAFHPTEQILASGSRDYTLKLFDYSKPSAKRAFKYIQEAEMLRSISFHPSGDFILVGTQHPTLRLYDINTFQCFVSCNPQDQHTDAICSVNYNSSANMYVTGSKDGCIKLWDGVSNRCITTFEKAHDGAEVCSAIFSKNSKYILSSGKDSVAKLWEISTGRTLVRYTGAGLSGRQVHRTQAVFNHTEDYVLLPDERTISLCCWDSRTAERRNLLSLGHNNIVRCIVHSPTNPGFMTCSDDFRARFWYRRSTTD

[9] = target: T9, HeLa cell extract proteins (Homo sapiens, UniProt Q15365)
T9 construct: endogenous in cells; host or cells: HeLa cell extract
T9 sequence (Q15365 whole entry): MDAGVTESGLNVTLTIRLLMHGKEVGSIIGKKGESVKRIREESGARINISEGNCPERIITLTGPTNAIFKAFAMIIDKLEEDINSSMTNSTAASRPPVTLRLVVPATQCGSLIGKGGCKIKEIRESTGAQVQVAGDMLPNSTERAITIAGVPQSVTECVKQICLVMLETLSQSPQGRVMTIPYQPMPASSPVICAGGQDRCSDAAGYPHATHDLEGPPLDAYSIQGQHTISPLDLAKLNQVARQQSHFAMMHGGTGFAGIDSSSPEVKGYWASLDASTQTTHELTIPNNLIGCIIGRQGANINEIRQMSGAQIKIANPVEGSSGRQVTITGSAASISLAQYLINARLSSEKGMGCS

[10] = target: T10, HeLa cell extract proteins (Homo sapiens, UniProt Q9NYU2)
T10 construct: endogenous in cells; host or cells: HeLa cell extract
T10 sequence (Q9NYU2 43-1555): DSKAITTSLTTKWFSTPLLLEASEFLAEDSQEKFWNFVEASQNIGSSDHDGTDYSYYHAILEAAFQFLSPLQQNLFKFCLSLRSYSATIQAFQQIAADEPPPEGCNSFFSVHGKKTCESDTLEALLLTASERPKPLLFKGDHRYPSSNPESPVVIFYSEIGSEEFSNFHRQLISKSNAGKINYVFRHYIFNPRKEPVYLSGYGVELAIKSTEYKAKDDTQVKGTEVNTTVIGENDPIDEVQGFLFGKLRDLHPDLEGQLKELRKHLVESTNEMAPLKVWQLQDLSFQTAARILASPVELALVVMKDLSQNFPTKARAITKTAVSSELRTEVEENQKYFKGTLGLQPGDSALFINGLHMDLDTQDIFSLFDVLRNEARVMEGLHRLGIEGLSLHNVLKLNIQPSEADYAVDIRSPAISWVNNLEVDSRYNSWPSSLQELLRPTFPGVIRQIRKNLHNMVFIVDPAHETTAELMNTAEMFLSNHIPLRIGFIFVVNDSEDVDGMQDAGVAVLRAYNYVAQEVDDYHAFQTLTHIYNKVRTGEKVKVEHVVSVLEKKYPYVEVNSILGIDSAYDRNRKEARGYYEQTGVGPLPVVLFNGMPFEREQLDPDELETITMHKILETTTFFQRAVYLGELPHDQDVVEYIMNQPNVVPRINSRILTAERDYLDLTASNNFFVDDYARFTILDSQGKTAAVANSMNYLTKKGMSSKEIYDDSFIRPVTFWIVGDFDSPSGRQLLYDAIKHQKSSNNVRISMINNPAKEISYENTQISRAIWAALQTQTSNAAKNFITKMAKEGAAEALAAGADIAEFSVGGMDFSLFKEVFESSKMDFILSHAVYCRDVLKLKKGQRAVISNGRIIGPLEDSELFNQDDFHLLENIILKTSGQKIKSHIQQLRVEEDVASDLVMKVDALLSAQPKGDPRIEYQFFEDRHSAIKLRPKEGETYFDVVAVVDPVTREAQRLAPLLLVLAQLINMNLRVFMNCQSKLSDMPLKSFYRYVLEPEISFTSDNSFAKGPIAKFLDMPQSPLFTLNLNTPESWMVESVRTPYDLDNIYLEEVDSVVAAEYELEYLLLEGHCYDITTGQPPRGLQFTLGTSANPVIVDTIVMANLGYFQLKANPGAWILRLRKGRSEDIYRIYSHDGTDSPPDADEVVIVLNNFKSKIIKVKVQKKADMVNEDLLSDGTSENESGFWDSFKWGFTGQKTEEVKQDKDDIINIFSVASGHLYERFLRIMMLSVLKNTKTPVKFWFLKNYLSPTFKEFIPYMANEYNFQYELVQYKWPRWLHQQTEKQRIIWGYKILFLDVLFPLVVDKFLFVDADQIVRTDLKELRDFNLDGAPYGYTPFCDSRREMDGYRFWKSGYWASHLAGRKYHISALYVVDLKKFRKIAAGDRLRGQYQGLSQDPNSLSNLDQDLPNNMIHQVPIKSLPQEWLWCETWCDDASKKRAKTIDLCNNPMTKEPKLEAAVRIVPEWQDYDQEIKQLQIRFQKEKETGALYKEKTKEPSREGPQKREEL

[11] = HeLa, protein PCCA (80 KDA PROTEIN)
[12] = HeLa, protein EEF2 (ELONGATION FACTOR 2.)

T1 sequence (O00303 whole entry): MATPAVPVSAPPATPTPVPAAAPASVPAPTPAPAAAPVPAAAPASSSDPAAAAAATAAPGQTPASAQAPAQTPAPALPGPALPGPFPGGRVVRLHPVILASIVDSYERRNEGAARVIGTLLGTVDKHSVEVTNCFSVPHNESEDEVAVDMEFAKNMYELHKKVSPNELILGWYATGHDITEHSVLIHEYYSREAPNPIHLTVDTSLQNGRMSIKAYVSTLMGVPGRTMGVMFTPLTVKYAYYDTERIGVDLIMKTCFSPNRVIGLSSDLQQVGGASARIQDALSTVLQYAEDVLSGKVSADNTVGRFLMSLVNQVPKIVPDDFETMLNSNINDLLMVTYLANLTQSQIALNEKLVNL

Nc1nc2c(c(=O)[nH]1)N(C=O)C(CNc1ccc(C(=O)N[C@@H](CCC(=O)O)C(=O)O)cc1)CN2 (stereo partly shown) [LEU, leucovorin]
fold changes relative to vehicle control ([1]; protein EIF3F, HeLa): 0.95
fold changes relative to vehicle control ([2]; HeLa, protein UGDH): 1.16
fold changes relative to vehicle control [3, 11]: 1.07
fold changes relative to vehicle control ([4]; HeLa, protein EEF2): 1.06
fold changes relative to vehicle control ([5]; HeLa, captured protein HINT1): 1.12
fold changes relative to vehicle control ([6]; protein GDI2, HeLa): 0.93
fold changes relative to vehicle control ([7]; protein AK2, HeLa): 0.99
fold changes relative to vehicle control ([8]; HeLa, captured protein CSTF1): 1
fold changes relative to vehicle control ([9]; HeLa, protein PCBP1): 0.92
fold changes relative to vehicle control ([10]; HeLa, protein UGCGL1): 1.09

Nc1nc2[nH]cc(CCc3ccc(C(=O)N[C@@H](CCC(=O)O)C(=O)O)cc3)c2c(=O)[nH]1 [PTX, pemetrexed]
fold changes relative to vehicle control [1]: 0.92
fold changes relative to vehicle control [2]: 1.21
fold changes relative to vehicle control [3]: 0.21
fold changes relative to vehicle control [4]: 1.2
fold changes relative to vehicle control [5]: 0.77
fold changes relative to vehicle control [6]: 0.9
fold changes relative to vehicle control [7]: 0.86
fold changes relative to vehicle control [8]: 0.99
fold changes relative to vehicle control [9]: 0.88
fold changes relative to vehicle control [10]: 1.02

CCCCCCOc1ccc(Cc2cnc(N)nc2N)cc1 [compound 1]
fold changes relative to vehicle control ([1]; HeLa, protein EIF3F): 0.93
fold changes relative to vehicle control ([2]; protein UGDH, HeLa): 1.13
fold changes relative to vehicle control ([3]; captured protein PCCA, HeLa): 1.07
fold changes relative to vehicle control [4, 12]: 1.33 fold
fold changes relative to vehicle control ([5]; HeLa, protein HINT1): 1.03
fold changes relative to vehicle control ([6]; protein GDI2, HeLa): 1.06
fold changes relative to vehicle control ([7]; captured protein AK2, HeLa): 1.04
fold changes relative to vehicle control ([8]; HeLa, protein CSTF1): 1.05
fold changes relative to vehicle control ([9]; protein PCBP1, HeLa): 1.02
fold changes relative to vehicle control ([10]; protein UGCGL1, HeLa): 0.99

CCCCCCOc1cccc(Cc2cnc(N)nc2N)c1 [compound 2]
fold changes relative to vehicle control ([1]; HeLa, protein EIF3F): 1.24
fold changes relative to vehicle control ([2]; protein UGDH, HeLa): 1.76
fold changes relative to vehicle control ([3]; captured protein PCCA, HeLa): 0.99
fold changes relative to vehicle control [4, 12]: 2.22 fold
fold changes relative to vehicle control ([5]; HeLa, protein HINT1): 0.99
fold changes relative to vehicle control ([6]; protein GDI2, HeLa): 1.81
fold changes relative to vehicle control ([7]; captured protein AK2, HeLa): 1
fold changes relative to vehicle control ([8]; HeLa, protein CSTF1): 0.99
fold changes relative to vehicle control ([9]; protein PCBP1, HeLa): 1.08
fold changes relative to vehicle control ([10]; protein UGCGL1, HeLa): 1.22

Nc1nc2cccc(-c3ccccc3)c2n1Cc1ccc(Cl)c(Cl)c1 [compound 3]
fold changes relative to vehicle control ([1]; HeLa, protein EIF3F): 1.05
fold changes relative to vehicle control ([2]; protein UGDH, HeLa): 0.78
fold changes relative to vehicle control ([3]; captured protein PCCA, HeLa): 1.01
fold changes relative to vehicle control ([4]; HeLa, protein EEF2 ([…] 2.)): 0.97 fold
fold changes relative to vehicle control ([5]; HeLa, protein HINT1): 1.17
fold changes relative to vehicle control ([6]; protein GDI2, HeLa): 0.72
fold changes relative to vehicle control ([7]; captured protein AK2, HeLa): 0.91
fold changes relative to vehicle control ([8]; HeLa, protein CSTF1): 0.98
fold changes relative to vehicle control ([9]; protein PCBP1, HeLa): 0.94
fold changes relative to vehicle control ([10]; protein UGCGL1, HeLa): 1.05

NCCOCCOCC(=O)Nc1nc2ncc(CNc3ccc(C(=O)NC(CCC(=O)O)C(=O)O)cc3)nc2c(=O)[nH]1 (stereo not shown) [compound 6]
fold changes relative to vehicle control ([1]; protein EIF3F, HeLa): 0.96
fold changes relative to vehicle control ([2]; HeLa, protein UGDH): 1.41
fold changes relative to vehicle control [3, 11]: 0.98
fold changes relative to vehicle control ([4]; HeLa, protein EEF2): 1.35
fold changes relative to vehicle control ([5]; HeLa, captured protein HINT1): 1.33
fold changes relative to vehicle control ([6]; protein GDI2, HeLa): 1.03
fold changes relative to vehicle control ([7]; protein AK2, HeLa): 0.95
fold changes relative to vehicle control ([8]; HeLa, captured protein CSTF1): 0.88
fold changes relative to vehicle control ([9]; HeLa, protein PCBP1): 0.94
fold changes relative to vehicle control ([10]; HeLa, protein UGCGL1): 1.01

NCCCNc1ccc(C(=O)NC(CCC(=O)O)C(=O)O)cc1 (stereo not shown) [compound 7]
fold changes relative to vehicle control ([1]; protein EIF3F, HeLa): 1.01
fold changes relative to vehicle control ([2]; HeLa, protein UGDH): 0.9
fold changes relative to vehicle control [3, 11]: 1.04
fold changes relative to vehicle control ([4]; HeLa, protein EEF2): 1.04
fold changes relative to vehicle control ([5]; HeLa, captured protein HINT1): 1.33
fold changes relative to vehicle control ([6]; protein GDI2, HeLa): 1.02
fold changes relative to vehicle control ([7]; protein AK2, HeLa): 1.08
fold changes relative to vehicle control ([8]; HeLa, captured protein CSTF1): 1.02
fold changes relative to vehicle control ([9]; HeLa, protein PCBP1): 0.91
fold changes relative to vehicle control ([10]; HeLa, protein UGCGL1): 1.05
